Ends that are not written are not given here.
Assays:
[1] = test system: GFP-PAK4-cat; assay: GST-integrin β5 fusion pull-down of GFP-PAK4-cat expressed in cells; type: binding, human; conditions: Figure 1C source data
Method: (§1) For pulldowns from cell lysates, human PAK4 constructs were generated in pEGFP (Takara Bio Inc.) by PCR amplification from a pLX304 PAK4 isoform 1 (Uniprot O96013-1) construct kindly provided by Michael Calderwood (Dana-Farber Cancer Institute). Mutations and deletions were introduced by QuikChange mutagenesis or PCR amplification. Chinese hamster ovary (CHO) cells were seeded on 10 cm tissue culture dishes and transiently transfected with GFP-tagged constructs using polyethylenimine (Polysciences). After 24 h, cells were harvested and lysed in buffer X (1 mM NaVO4, 50 mM NaF, 40 mM sodium pyrophosphate, 50 mM NaCl, 150 mM sucrose, 10 mM Pipes, pH 6.8) containing 0.5% Triton X-100, 0.2% deoxycholic acid, and complete EDTA-free protease inhibitor mixture (Roche, Indianapolis, IN, USA) for 15 min at 4 °C. After clarification by centrifugation, lysate was diluted in buffer X-T (buffer X with 0.05% Triton X-100) and incubated with His-tagged integrin tails coupled to Ni-NTA beads for 4 h with rocking at 4 °C. For experiments using purified PAK4cat, protein was incubated with His-tagged integrin tails coupled to Ni-NTA beads in buffer X-T for 2 h with rocking at 4 °C. Beads were then washed three times with buffer X-T, and bound proteins were fractionated by reducing SDS-PAGE and analyzed by immunoblotting with anti-GFP antibodies (600-101-215, Rockland). Immunoblots were imaged on an Odyssey IR imaging system (Li-Cor; Lincoln, NE, USA) and analyzed using Image Studio Lite (Li-Cor; Lincoln, NE, USA). For the quantification of binding from immunoblots, the fluorescence intensity of the band corresponding to bound material was quantified as a fraction of the fluorescence of the input material band for each condition. Loading of integrin tails was assessed by Coomassie Blue staining. Data were analyzed using GraphPad Prism.

[2] = test system: GFP-PAK4-Δcat; assay: GST-integrin β5 fusion pull-down of GFP-PAK4-Δcat expressed in cells; type: binding, human; conditions: Figure 1C source data
Method: as §1

[3] = test system: PAK6; assay: In vitro phosphorylation of integrin β5 tail by PAK6; type: biochemical; conditions: in vitro kinase assay, Fig. 5a
[4] = test system: PAK4cat; assay: Radioactive kinase assay with MBP as substrate; type: biochemical, human; conditions: in vitro kinase assay, full-length tail 6-50 μM
Method: Impact of full-length cytosolic integrin β5 on kinase activity was assessed using a radioactive assay with myelin basic protein (MBP) as substrate. Assays were performed by addition of 0.1 µM of PAK4cat kinase, 2 µM of MBP, cytosolic full-length integrin β5 ^743–799 (50, 25, 12, and 6 μM), with 12 µM of cold ATP and 0.05 µCi of hot [γ33-P] ATP in Tris buffer (20 mM Tris-HCl (pH 8.0), 0.3 M NaCl, 1 mM TCEP, and 10 mM MgCl2) with a total volume of 25 µL. The reaction was conducted at 30 °C for 7–11 min then stopped by the addition of 5× sample buffer and analyzed by SDS-PAGE. Dried gels were analyzed by exposure to phosphor storage screen (GE Healthcare) followed by scanning using a Molecular Imager FX Pro Plus System (Bio-Rad) and quantified by optical densitometry Quantity One (Bio-Rad). Measurements were calculated from three independent experiments. Significant differences were calculated by Prism 7 (GraphPad Software) with ANOVA analysis. Impact of short integrin β5 peptide on kinase activity was assessed using a radioactive assay with a LIM kinase peptide (RKKRYTVVGN, LIMtide) as substrate. The concentration of PAK4 and LIMtide were kept constant at 0.2 and 50 µM, respectively. […] Duplicate measurements were calculated from three independent experiments. […]

[5] = molecular target: T1, PAK4 (Homo sapiens, UniProt O96013); assay: In vitro phosphorylation of integrin β5 tail by PAK4; type: biochemical; conditions: in vitro kinase assay, Fig. 5a
T1 construct: catalytic domain of PAK4 (UniProt ID:O96013) was sub-cloned into a modified pET28a vector; 6xHis (TEV-cleavable) (N); made in house; host or cells: E. coli BL21-CodonPlus(DE3)RILP

[6] = test system: PAK4-cat; assay: Pull-down of purified recombinant PAK4-cat by His-tagged integrin tails on Ni-NTA beads; type: binding, human
Method: Pull down assays were performed as previously described[45],[60]. Briefly, constructs encoding an N-terminal His-tag followed by a helical region, a 4-glycine spacer, and an integrin cytoplasmic tail sequence were produced in BL21 (DE3) bacteria. Following bacterial cell lysis, recombinant protein was bound to Ni-NTA beads, eluted with imidazole, dialyzed and further purified by reverse-phase high-performance liquid chromatography (HPLC). Purified protein was lyophilized for storage and was used to coat fresh Ni-NTA beads to generate an affinity matrix for pull-down assays.
as §1

T1 sequence (O96013 321-572 limits assumed): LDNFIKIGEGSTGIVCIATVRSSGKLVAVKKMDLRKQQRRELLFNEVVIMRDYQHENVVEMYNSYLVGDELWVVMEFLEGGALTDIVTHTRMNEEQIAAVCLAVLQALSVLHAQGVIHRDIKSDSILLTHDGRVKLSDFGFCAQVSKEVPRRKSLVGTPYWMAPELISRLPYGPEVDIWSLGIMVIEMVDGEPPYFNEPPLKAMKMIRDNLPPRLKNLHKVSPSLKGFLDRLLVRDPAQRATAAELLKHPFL

B5 746-758: GST-fusion truncation of integrin β5 tail ending at residue 758 (VTIHDRREFAKFQ; also: GST fusion, end not given here; UniProt P18084 746-758, looked up, fragment)
PAK4 Cat bound (pull-down quantification) ([1]; bound band as fraction of input, replicate column 1 of 7): 0.2198 | PAK4 Cat bound (pull-down quantification) ([1]; replicate column 6 of 7): 0.1642 | PAK4 Cat bound (pull-down quantification) ([1]; replicate column 7 of 7): 0.1513 | PAK4 Nterm bound (pull-down quantification) ([2]; replicate 3): 0 | PAK4 Nterm bound (pull-down quantification) ([2]; replicate 4): 0.03887 | PAK4 Nterm bound (pull-down quantification) ([2]; replicate 5): 0.08311 | PAK4 Nterm bound (pull-down quantification) ([2]; replicate 6): 0 | PAK4 Nterm bound (pull-down quantification) ([2]; replicate 7): 0

B5 746-762: GST-fusion truncation of integrin β5 tail ending at residue 762 (VTIHDRREFAKFQSERS; also: GST fusion, end not given here; UniProt P18084 746-762, looked up, fragment)
PAK4 Cat bound (pull-down quantification) ([1]; replicate column 6 of 7): 0.1712 | PAK4 Cat bound (pull-down quantification) ([1]; replicate column 7 of 7): 0.5556 | PAK4 Nterm bound (pull-down quantification) ([2]; replicate 6): 0 | PAK4 Nterm bound (pull-down quantification) ([2]; replicate 7): 0

integrin β5 cytoplasmic tail: Recombinant His-tagged integrin β5 cytoplasmic tail, residues 743–799 (KLLVTIHDRREFAKFQSERSRARYEMASNPLYRKPISTHTVDFTFNKFNKSYNGTVD; also: 6xHis tag)
Phosphorylation of integrin β5 by PAK6 [3]: does not display strong phosphorylation | Effect on PAK4 catalytic activity [4]: suppression of catalytic activity | Kinase activity of PAK4 towards the integrin β5 tail (phosphorylation, words) [5]: negligible | PAK4Cat bound to tail (pull-down quantification) ([6]; 5 nM PAK4Cat, replicate 2): 4.211 | PAK4Cat bound to tail (pull-down quantification) ([6]; 50 nM PAK4Cat, replicate 1): 47.6856 | PAK4Cat bound to tail (pull-down quantification) ([6]; 50 nM PAK4Cat, replicate 2): 66.5041 | PAK4Cat bound to tail (pull-down quantification) ([6]; 100 nM PAK4Cat, replicate 1): 90.1913 | PAK4Cat bound to tail (pull-down quantification) ([6]; 100 nM PAK4Cat, replicate 2): 166.368 | PAK4Cat bound to tail (pull-down quantification) ([6]; 200 nM PAK4Cat, replicate 1): 112.727 | PAK4Cat bound to tail (pull-down quantification) ([6]; 200 nM PAK4Cat, replicate 2): 69.6949 | PAK4Cat bound to tail (pull-down quantification) ([6]; 500 nM PAK4Cat, replicate 1): 260.384 | PAK4Cat bound to tail (pull-down quantification) ([6]; 500 nM PAK4Cat, replicate 2): 185.982 | PAK4Cat bound to tail (pull-down quantification) ([6]; 750 nM PAK4Cat, replicate 2): 239.04 | PAK4Cat bound to tail (pull-down quantification) ([6]; 1000 nM PAK4Cat, replicate 1): 443.221 | PAK4Cat bound to tail (pull-down quantification) ([6]; 1000 nM PAK4Cat, replicate 2): 367.326 | PAK4Cat bound to tail (pull-down quantification) ([6]; 2000 nM PAK4Cat, replicate 2): 619.089 | PAK4Cat bound to tail (pull-down quantification) ([6]; 2000 nM PAK4Cat, replicate 3): 750 | PAK4Cat bound to tail (pull-down quantification) ([6]; 3000 nM PAK4Cat, replicate 1): 966.407 | PAK4Cat bound to tail (pull-down quantification) ([6]; 3000 nM PAK4Cat, replicate 2): 705.982 | PAK4Cat bound to tail (pull-down quantification) ([6]; 4000 nM PAK4Cat, replicate 2): 871.714 | PAK4Cat bound to tail (pull-down quantification) ([6]; 5000 nM PAK4Cat, replicate 3): 875 | PAK4Cat bound to tail (pull-down quantification) ([6]; Figure 1D source data, 5 nM PAK4Cat, replicate 1): 9.128

Reference: paper PMC9669019, “Molecular basis for integrin adhesion receptor binding to p21-activated kinase 4 (PAK4)” (Communications Biology, 2022)
